The source of these data is ChEMBL document CHEMBL1201862, “PubChem BioAssay data set” (2004).

Assay [1] has as its target T1, Voltage-gated N-type calcium channel alpha-1B subunit/Amyloid beta A4 precursor protein-binding family A member 1 (Homo sapiens, UniProt Q00975+Q02410). Format: protein assay.
In assay [2] the target is T1, Voltage-gated N-type calcium channel alpha-1B subunit/Amyloid beta A4 precursor protein-binding family A member 1. The format is protein assay. This is another data set of the same source.
The target in assay [3] is T2, Mu-type opioid receptor (Homo sapiens, UniProt P35372). The assay is described as follows: MOR antagonists, SAR follow-up, image-based (AID 2420).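 Note: compounds added before stimulation of receptor with agonist DAMGO.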 The format is functional.
T2 sequence (P35372 whole entry): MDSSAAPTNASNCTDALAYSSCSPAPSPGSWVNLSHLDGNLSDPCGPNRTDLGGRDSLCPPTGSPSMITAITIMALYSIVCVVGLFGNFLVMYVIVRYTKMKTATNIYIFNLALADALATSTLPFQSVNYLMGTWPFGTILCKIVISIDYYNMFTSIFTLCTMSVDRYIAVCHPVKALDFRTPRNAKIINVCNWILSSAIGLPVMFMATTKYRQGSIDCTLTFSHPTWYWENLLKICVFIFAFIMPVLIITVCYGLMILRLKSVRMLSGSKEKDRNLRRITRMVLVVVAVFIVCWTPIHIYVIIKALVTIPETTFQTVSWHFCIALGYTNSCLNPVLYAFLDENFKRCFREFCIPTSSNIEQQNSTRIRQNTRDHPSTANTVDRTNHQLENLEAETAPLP
Assay [4] addresses T3, Delta-type opioid receptor (Homo sapiens, UniProt P41143). The experiment in a line: DOR antagonists, SAR follow-up, image-based (AID 2357). The format is functional.
In assay [5] the target is T3, Delta-type opioid receptor. The assay is described as follows: HTS Image-Based Screen for Antagonists of the DOR Receptor. [Related pubchem assays (depositor defined):AID1777, AID1785, AID1786, AID2133]. Format: functional.
The target of assay [6] is T3, Delta-type opioid receptor. The experiment in a line: HTS Image-Based Screen for Agonists of the DOR Receptor. [Related pubchem assays (depositor defined):AID1777, AID1786, AID2133]. The format is functional.
Assay [7] deals with T4, Kappa-type opioid receptor (Homo sapiens, UniProt P41145). The format is functional.
T4 sequence (P41145 whole entry): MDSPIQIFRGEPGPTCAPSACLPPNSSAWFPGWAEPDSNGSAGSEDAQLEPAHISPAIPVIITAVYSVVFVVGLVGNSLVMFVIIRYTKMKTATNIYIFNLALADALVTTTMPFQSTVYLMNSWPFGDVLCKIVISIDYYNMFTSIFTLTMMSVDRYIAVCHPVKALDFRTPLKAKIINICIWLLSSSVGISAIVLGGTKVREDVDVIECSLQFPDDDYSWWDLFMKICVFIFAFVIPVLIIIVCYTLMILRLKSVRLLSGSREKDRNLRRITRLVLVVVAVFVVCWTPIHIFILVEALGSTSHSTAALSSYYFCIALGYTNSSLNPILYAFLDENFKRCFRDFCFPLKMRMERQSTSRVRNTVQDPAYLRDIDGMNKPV
In assay [8] the target is T4, Kappa-type opioid receptor. The assay is described as follows: SAR analysis of small molecule agonists of the kappa opioid receptor via a luminescent beta-arrestin assay. [Related pubchem assays (depositor defined):AID1777, AID1786, AID1966, AID2133, AID2136, AID2348, AID2352, AID2357, AID2359, AID2370, AID2420, AID2478, AID2491, AID2492, AID2493, AID2497, AID2498, AID2500, AID449737, AID488822, AID488842]. Format: functional.

Assay [9] has as its target T4, Kappa-type opioid receptor. The experiment in a line: KOR agonist analogs, imaging readout, SAR follow-up, image-based (AID 2359). Format: functional.
The target of assay [10] is T4, Kappa-type opioid receptor. The experiment in a line: KOR antagonists by imaging, SAR follow-up, image-based (AID 2348). Format: functional.
The target in assay [11] is T2, Mu-type opioid receptor. The assay is described as follows: MOR agonists by imaging, SAR follow-up, image-based (AID 2352). The format is functional.
The target in assay [12] is T3, Delta-type opioid receptor. The assay is described as follows: DOR agonists, SAR follow-up, image-based (AID 2370). Format: functional.
Assay [13] addresses T2, Mu-type opioid receptor. The experiment in a line: HTS Image-Based Screen for Agonists of the MOR Receptor. [Related pubchem assays (depositor defined):AID1777, AID1785, AID1786, AID2133]. The format is functional.
Assay [14] concerns the target T4, Kappa-type opioid receptor. The format is functional. This is another data set of the same source.
For assay [15], the target named is Neurotensin receptor type 1 (Homo sapiens, UniProt P30989). The format is functional.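 Note: Image-based confirmatory dose-response assay measuring agonist activity at NTR1; NTR1-expressing U2OS osteosarcoma cells imaged for beta-arrestin GFP spot formation; agonist potency where compounds increase beta-arrestin recruitment.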
The next assay addresses Phosphomannomutase 2 (Homo sapiens, UniProt O15305). The assay is described as follows: Counter screen SAR assay for PMM2 inhibitors via a fluorescence intensity assay. [Related pubchem assays (depositor defined):AID1545, AID1574]. In general terms: The purpose of a counterscreen is to sort out artefacts and off-target activity.
Assay [16] concerns the target Acylamino-acid-releasing enzyme (Homo sapiens, UniProt P13798). The assay is described as follows: PME-1 inhibitor potency by in-gel ABPP, dose response, selectivity assay for PME-1 inhibitor project, cell lysate, mouse brain cytosol, FP-rhodamine, panel member APEH Assay Panel member description: Inhibition of N-acylaminoacyl-peptide hydrolase (APEH) (anti-target) (AID 2366).

The nature of assay [17]: Late stage results from the probe development effort to identify inhibitors of the protein methylesterase PME-1: Luminescence-based counterscreen assay to identify cytotoxic compounds. Format: functional.
Assay [18] has as its target NACHT, LRR and PYD domains-containing protein 3 (Homo sapiens, UniProt Q96P20). The experiment in a line: NALP3 inhibitors in yeast, dose response, luminescent (AID 488799). Format: functional.
Assay [19] in a line: Vero E6 cell cytotoxicity, dose response, cytotoxicity control for non-replicating M. tuberculosis project, secondary assay (AID 492998). Format: functional, VeroE6. Particulars: Vero C1008.
The next assay concerns Streptococcus. The assay is described as follows: Group A Streptococcus viability loss, dose response, counter-screen for streptokinase expression inhibitor project, luminescence, BacTiterGlo (AID 1915).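 Note: potency for reduction of bacterial viability or growth.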 Format: functional, organism-based.
The nature of assay [20]: cells. Format: functional.
A short description of assay [21]: microbe, parasite or virus in culture. Format: functional. The following applies: Mycobacterium tuberculosis.
Assay [22] has as its system Streptococcus sp. 'group A'. The experiment in a line: growth inhibition of control SK(-) GAS strain, dose response, counter-screen for streptokinase expression inhibitor project, luminescence, kanamycin, BacTiterGlo, confirmation (AID 1900). The format is functional, organism-based.
Assay [23] has as its target G-protein coupled receptor 55 (Homo sapiens, UniProt Q9Y2T6). The experiment in a line: GPR55 antagonists blocking LPI-driven arrestin recruitment, primary screen, imaging, U2OS, beta-arrestin-GFP, LPI agonist (AID 2013).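 Note: antagonist potency measured as reduced agonist-driven arrestin aggregation.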 Format: functional.
Assay [24] in a line: cytotoxicity in NIH/3T3 mouse fibroblasts, dose response, cytotoxicity control, cell-based, mouse embryonic fibroblasts, dry powder, set 2 (AID 493247). The following applies: Fibroblast. Format: functional.
A short description of assay [25]: cytotoxicity toward NIH3T3 fibroblasts, dose response, counter-screen, cell-based, ATP luminescence, mouse fibroblasts (AID 2010).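 Note: cells exposed to compound for about 90 hours before reading.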 The format is functional.
Assay [26] in a line: inhibitors of intracellular T. cruzi replication, confirmation, NIH3T3 host cells, beta-gal luminescence (AID 2044).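 Note: intracellular parasites grown in NIH/3T3 mouse fibroblasts as host cells; luminescent beta-galactosidase reporter signal from transgenic T. cruzi replicating inside host cells; inhibitors lower the luminescence signal.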 Format: functional, cell-based.
Assay [27] can be described thus: growth suppression of beta-catenin-knockout colon cells, dose response, cell-based, HCT116, human colon tumor (AID 1045).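 Note: HCT116 colon tumor cells with beta catenin knocked out; cells exposed to compound for 60 hours.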 Format: functional.
Assay [28] can be described thus: growth suppression of PTEN-null colon cells, dose response, cell-based, HCT116 PTEN knockout (AID 1047).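 Note: HCT116 colon tumor cells with PTEN knocked out; cells exposed to compound for 60 hours before readout; potency for loss of cell viability measured by luminescence.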 The format is functional.
The target in assay [29] is T5, Microphthalmia-associated transcription factor (Homo sapiens, UniProt O75030).
T5 sequence (O75030 whole entry): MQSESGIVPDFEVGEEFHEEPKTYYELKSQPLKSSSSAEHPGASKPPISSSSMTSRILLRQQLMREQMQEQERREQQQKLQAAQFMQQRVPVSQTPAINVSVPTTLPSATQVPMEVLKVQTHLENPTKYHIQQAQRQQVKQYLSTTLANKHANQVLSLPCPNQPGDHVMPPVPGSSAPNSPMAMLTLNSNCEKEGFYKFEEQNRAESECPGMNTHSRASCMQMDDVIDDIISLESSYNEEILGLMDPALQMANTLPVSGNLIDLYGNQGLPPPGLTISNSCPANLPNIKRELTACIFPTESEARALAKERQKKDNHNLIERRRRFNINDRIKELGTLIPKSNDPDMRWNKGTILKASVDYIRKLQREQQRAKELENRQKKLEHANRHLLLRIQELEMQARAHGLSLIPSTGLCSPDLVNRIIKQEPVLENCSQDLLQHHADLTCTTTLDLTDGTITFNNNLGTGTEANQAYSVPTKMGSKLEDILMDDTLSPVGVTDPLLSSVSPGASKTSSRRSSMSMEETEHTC
The assay is described as follows: TRPM1 promoter luciferase signal decrease, dose response, MITF inhibitor project, cell-based, SK-MEL-5, cherry-picked, set 3 (AID 493073).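 Note: SK-MEL-5 melanoma cells with luciferase driven by the MITF target TRPM1 promoter.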 The format is functional.

The next assay has as its system Trypanosoma cruzi. The assay is described as follows: growth inhibition of intracellular Trypanosoma cruzi, dose response, cell-based, plate reader, dry powder, set 3 (AID 493197). The format is functional.
Assay [30] has as its target Voltage-dependent T-type calcium channel subunit alpha-1H (Homo sapiens, UniProt O95180). Format: functional.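 Note: channel activity triggered by adding a high calcium stimulation buffer.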
Assay [31] is described as follows: ZM109 Env clade C HIV-1 fusion inhibitors, dose response, HeLa effector, CEM target cells, luciferase, cherry-pick (AID 652058). The format is functional, cell-based.
The nature of assay [32]: inhibitors of clade B AD8 Env fusion, dose response, cell-based, cherry-pick (AID 652062).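 Note: luciferase signal from cell-cell fusion driven by HIV-1 clade B AD8 Env; potency is for inhibitors of fusion seen as a drop in luminescence.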 Format: functional.
Another assay deals with Beta-galactosidase (Escherichia coli, UniProt Q8VNN2). The assay is described as follows: beta-galactosidase enzyme inhibitors and activators, dose response, artefact control for CCR6 antagonist project, biochemical, E. coli enzyme, set 3 (AID 504712). The format is functional.
Assay [33] is described as follows: cells. The following applies: HEK-CNG. Format: functional, cell-based.
Assay [34] addresses C-C chemokine receptor type 6 (Homo sapiens, UniProt P51684). The experiment in a line: CCR6 receptor antagonists, dose response, cell-based, luminescent beta-arrestin readout (AID 504728). Format: functional.
A short description of assay [35]: CEM21 lymphoblast cell cytotoxicity, dose response, cytotoxicity control for viral fusion inhibitor project, CellTiter-Glo luminescence, cherry-picked (AID 652042).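 Note: potency for signal decrease meaning cytotoxicity.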 The format is functional, cell-based.
The next assay concerns the target T6, Galanin receptor type 3 (Homo sapiens, UniProt O60755).
T6 sequence (O60755 whole entry): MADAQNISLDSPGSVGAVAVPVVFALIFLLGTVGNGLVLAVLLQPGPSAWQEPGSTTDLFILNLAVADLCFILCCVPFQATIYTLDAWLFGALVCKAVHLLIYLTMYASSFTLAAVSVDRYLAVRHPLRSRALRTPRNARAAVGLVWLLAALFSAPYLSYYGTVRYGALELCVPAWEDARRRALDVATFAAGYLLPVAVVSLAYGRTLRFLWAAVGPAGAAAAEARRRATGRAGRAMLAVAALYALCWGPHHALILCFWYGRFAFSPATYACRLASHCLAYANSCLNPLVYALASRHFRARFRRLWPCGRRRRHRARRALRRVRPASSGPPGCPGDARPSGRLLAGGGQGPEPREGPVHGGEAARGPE
The experiment in a line: Fluorescence-based cell-based primary high throughput dose response assay to identify antagonists of the Galanin Receptor 3 (GalR3). Format: functional.

Values joined by “and” are separate entries in the source; they are usually repeats but may differ in a detail not shown here. Identical values can stand only once. Active and inactive are the calls of the source.

T3 sequence (P41143 whole entry): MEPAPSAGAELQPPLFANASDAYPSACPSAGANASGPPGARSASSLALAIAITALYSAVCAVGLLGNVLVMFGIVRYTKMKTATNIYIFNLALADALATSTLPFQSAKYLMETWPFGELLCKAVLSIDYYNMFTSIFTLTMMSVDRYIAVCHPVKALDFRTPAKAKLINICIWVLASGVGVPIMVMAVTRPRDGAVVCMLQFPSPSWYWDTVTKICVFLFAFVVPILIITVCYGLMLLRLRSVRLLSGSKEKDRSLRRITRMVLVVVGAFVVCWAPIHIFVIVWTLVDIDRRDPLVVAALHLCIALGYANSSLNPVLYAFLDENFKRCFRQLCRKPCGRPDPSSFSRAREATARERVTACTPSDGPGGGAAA
T1 sequence (Q00975 whole entry): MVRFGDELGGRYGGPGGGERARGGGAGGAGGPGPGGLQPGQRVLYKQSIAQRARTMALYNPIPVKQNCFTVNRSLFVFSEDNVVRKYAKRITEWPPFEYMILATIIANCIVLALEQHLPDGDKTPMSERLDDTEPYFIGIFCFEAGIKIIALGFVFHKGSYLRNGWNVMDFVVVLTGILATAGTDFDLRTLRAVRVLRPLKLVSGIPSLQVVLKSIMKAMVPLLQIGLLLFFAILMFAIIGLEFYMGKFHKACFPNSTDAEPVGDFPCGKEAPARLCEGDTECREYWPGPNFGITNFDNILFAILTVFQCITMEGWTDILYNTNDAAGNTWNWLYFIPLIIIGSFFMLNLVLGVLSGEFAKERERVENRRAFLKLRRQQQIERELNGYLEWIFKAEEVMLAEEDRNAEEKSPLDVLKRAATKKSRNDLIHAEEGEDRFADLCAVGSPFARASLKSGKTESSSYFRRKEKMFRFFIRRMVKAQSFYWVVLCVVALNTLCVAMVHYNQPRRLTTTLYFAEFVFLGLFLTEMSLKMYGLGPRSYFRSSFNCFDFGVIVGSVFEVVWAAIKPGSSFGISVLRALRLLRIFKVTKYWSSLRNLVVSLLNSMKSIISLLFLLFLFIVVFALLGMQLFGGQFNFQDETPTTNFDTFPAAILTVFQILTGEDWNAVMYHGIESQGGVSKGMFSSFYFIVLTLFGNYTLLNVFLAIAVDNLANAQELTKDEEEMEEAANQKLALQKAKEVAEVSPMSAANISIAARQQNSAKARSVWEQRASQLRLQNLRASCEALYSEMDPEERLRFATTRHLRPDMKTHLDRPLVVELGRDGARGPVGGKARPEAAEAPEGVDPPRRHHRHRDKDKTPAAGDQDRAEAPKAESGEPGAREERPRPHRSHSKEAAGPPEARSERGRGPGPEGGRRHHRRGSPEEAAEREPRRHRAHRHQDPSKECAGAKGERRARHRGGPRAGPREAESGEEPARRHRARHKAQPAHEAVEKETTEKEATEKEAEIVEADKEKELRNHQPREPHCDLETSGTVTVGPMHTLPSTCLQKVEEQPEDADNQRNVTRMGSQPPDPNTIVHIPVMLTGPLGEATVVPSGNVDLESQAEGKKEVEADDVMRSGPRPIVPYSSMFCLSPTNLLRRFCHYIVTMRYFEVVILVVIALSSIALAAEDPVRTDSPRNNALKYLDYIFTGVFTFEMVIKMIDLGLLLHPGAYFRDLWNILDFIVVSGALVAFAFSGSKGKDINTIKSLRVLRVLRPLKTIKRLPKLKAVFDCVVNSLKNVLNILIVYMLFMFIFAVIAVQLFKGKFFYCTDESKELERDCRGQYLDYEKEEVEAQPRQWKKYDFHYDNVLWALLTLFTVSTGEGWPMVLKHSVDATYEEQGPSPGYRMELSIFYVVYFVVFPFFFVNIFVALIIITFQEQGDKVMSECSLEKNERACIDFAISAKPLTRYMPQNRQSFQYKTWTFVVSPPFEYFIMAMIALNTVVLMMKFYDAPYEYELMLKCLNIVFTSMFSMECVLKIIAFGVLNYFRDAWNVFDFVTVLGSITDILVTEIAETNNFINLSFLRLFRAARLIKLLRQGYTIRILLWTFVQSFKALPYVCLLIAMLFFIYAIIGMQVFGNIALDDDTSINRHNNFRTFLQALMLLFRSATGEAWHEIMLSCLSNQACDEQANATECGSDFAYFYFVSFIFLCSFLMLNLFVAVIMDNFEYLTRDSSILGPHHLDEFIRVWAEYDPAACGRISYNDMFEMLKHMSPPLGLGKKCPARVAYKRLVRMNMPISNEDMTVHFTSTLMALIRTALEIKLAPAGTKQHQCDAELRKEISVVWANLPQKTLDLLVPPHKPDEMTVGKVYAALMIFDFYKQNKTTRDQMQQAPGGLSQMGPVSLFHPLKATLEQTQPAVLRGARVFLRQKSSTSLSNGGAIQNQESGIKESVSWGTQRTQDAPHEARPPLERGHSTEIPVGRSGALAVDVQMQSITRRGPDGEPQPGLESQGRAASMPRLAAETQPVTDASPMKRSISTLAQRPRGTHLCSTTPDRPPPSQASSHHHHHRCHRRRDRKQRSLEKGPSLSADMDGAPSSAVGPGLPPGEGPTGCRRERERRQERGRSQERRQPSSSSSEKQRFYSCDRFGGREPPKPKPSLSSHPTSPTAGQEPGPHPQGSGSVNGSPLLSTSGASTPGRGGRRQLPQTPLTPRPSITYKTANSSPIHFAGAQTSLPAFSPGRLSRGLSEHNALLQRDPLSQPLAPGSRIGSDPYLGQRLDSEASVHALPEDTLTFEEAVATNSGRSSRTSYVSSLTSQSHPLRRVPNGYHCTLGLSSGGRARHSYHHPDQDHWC
T1 sequence (Q02410 whole entry): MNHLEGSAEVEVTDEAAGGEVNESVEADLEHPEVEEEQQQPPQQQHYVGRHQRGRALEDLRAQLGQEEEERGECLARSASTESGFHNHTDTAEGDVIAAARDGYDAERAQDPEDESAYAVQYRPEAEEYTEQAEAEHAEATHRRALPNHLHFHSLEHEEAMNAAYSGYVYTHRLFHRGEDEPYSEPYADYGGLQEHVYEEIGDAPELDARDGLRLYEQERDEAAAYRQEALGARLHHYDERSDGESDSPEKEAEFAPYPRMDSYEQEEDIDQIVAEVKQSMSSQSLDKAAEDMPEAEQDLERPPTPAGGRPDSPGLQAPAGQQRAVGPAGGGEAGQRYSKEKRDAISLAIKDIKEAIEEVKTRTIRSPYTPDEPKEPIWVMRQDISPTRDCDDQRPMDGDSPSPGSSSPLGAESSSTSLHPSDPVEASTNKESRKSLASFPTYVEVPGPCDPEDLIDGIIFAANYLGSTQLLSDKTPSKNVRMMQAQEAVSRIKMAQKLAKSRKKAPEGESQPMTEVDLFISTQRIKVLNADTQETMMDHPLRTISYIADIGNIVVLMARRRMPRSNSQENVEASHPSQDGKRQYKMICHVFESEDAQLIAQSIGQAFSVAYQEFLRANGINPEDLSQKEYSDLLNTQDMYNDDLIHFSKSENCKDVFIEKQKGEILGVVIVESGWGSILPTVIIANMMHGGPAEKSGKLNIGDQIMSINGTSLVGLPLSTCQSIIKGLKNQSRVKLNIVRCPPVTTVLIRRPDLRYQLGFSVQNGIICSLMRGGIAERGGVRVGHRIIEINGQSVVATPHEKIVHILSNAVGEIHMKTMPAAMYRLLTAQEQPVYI
Sequence of Acylamino-acid-releasing enzyme (P13798 whole entry): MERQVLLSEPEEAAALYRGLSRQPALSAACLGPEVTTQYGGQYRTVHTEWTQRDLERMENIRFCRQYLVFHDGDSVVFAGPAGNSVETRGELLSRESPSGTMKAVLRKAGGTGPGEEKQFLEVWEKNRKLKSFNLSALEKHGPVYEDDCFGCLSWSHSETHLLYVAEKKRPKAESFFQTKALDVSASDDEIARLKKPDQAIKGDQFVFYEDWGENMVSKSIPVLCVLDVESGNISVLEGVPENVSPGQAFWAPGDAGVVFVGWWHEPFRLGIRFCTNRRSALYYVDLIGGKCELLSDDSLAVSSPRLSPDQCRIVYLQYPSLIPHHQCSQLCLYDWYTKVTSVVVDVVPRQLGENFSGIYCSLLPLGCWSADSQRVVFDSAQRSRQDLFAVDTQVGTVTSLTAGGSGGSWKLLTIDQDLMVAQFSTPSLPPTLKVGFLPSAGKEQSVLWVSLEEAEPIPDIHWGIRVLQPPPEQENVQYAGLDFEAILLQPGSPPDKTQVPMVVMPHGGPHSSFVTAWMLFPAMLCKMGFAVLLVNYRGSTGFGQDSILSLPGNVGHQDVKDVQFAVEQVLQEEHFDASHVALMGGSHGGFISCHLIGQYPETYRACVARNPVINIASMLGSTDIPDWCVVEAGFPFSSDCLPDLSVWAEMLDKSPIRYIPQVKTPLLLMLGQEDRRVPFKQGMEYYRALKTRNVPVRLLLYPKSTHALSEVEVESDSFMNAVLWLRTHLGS

In general, IC50 refers to the point on the concentration scale where inhibition reaches its midpoint. As to `O=C(O)Cc1sc(Nc2ccc(F)cc2)nc1-c1cccs1`, the half-inhibitory concentration (IC50) in [1] is 9.21 µM (active); in assay [2] it was > 50 µM (inactive).
One may read the EC50 as the midpoint of the concentration-response curve. `O=C(c1ccccn1)N(Cc1ccco1)C1(C(=O)NC2CCCCC2)CCCCC1`: the IC50 (on Mu-type opioid receptor [3]; in [4]; in assay [5]; in assay [10]) was > 32 µM (inactive) in each case. The EC50 was > 32 µM (inactive) in assay [6]; 0.22 µM in [7]; 0.821 µM (active) in assay [8]; 0.125 µM (active) in assay [9]; > 32 µM (inactive) on Mu-type opioid receptor [11]; > 32 µM (inactive) in assay [12]. In addition, the results for the EC50 (on Mu-type opioid receptor [13]; in assay [14]) were > 32 µM (inactive) and < 0.5 µM, respectively.
With `CC(C)Cn1c(N)c(C(=O)CSc2cc(Cl)ccc2Cl)c(=O)n(C)c1=O`, the half-maximal effective concentration (EC50) in assay [15] was 16.5 µM (active).
`O=c1c2ccccc2sn1-c1cccc(I)c1`: the IC50 on Phosphomannomutase 2 is > 100 µM (inactive).
Consider `N#C/C(=C\c1cccn1S(=O)(=O)c1cccc(C#N)c1)S(=O)(=O)c1ccc(F)cc1`, for which the IC50 in assay [16] is > 50 µM (inactive). The CC50 in assay [17] was 100 µM (active).
Consider `O=c1cc(-c2ccccc2Cl)oc2ccc([N+](=O)[O-])c(O)c12`, for which the IC50 in assay [18] is 9.17 µM (active); in the assay “cells [20]” it was 12.1 µM (active). Further, the CC50 in assay [19] is > 20 µM (active); in assay [21] it was 26.2 µM (active). Further, the half-maximal effective concentration (EC50) was 8.09 µM (active) with Streptococcus and 4.58 µM (active) in assay [22].
As for `CC(C)(C)c1nn(-c2ccccc2)c2[nH]c(=O)c(CNCc3ccc4c(c3)OCO4)cc12`, in assay [23], the IC50 is 2.67 µM (active). In assay [21], the CC50 is 27.2 µM (active).
For orientation: AC50 means the midpoint of the concentration-response curve, whichever way the signal moves. With `O=C(COc1ccccc1)N/N=C/c1ccc([N+](=O)[O-])o1`, the results for the AC50 (in [24]; in assay [29]; with Trypanosoma cruzi) were 21.2 µM (active), 21.5 µM (active) and 0.317 µM (active), respectively. Moreover, the 50% effective concentration (EC50) is > 60 µM (not active) in [25], 0.122 µM (active) in assay [26], 6.95 µM (active) in [27] and 7.39 µM (active) in assay [28].
For the molecule `CCN(CC)S(=O)(=O)c1cccc(C(=O)N[C@H](C(=O)OCC(=O)Nc2ccccc2)C(C)C)c1`, the EC50 in assay [30] was 0.558 µM (active).
Regarding `COCC(C)n1c(-c2ccc3c(c2)NC(=O)CO3)cs/c1=N\c1ccc(OC(F)F)cc1` (stereo unspecified), the figures for the AC50 in assay [31], in assay [32] and in assay [35] were 4.28 µM (active), 3.15 µM (active) and 42.7 µM (active), respectively. Further, the IC50 at Beta-galactosidase is > 66.6 µM (inactive); in [34], > 66.6 µM (inactive); on Galanin receptor type 3, 4.24 µM (active) and 3.49 µM (active). For the same molecule, the EC50 in “cells [33]” is > 29.9 µM (inactive).
